Test results reported in patent US6193967A, “Bispecific reagents for redirected targeting of human lipoproteins” (priority 1997, dated 2001).

Test system: monocytes
Assay: Uptake of bispecific LDL*-IC by monocytes (flow cytometry of cell-associated fluorescence)
Format: cell-based, human
Settings: monocytes at 37° C., bispecific LDL*-IC (anti-FcγRII×anti-LDL plus BODIPY-LDL); antioxidant concentration not given
Description: All experiments were done under sterile conditions. For each experiment, bispecific LDL immune complexes (bispecific LDL*-IC) were freshly prepared by combining 4 μg/ml of LDL* with heteroantibodies in eppendorf tubes in monocyte culture medium (without serum or unlabeled LDL unless otherwise indicated), and incubating for one hour at room temperature, prior to adding cells in RPMI 1640 plus 10% FCS. That concentration of LDL* was chosen because it gave a satisfactory signal to noise ratio. In all experiments, a control consisting of LDL* alone was set up by substituting medium for heteroantibody. The final volume of bispecific complexes prior to addition of cells was […]; […] of cells at 1×10^7 /ml were added for a final volume of […]. The tubes were then mixed by gentle pipetting, and incubated at 4° C. or 37° C. as indicated. Final mAb or heteroantibody concentrations are shown in each figure; the final concentration of LDL* in all preparations was 1.33 μg/ml unless otherwise indicated. […]
In all experiments, cells were removed after various times of incubation and washed twice with one ml of PBS at room temperature. […] For cytofluorogaphic analysis, samples were analyzed for green fluorescence on a FACScan (Becton-Dickinson). The excitation wavelength was 488 nm and emission at 515 nm was analyzed. […]

## Cc1cc(C(C)(C)C)c(O)c(C(C)(C)C)c1 [butylated hydroxytoluene]
  effect on the response to bispecific LDL*-IC (uptake by monocytes): had no effect
